What was measured:
[1] = test system: Capitate peg neuron A (cpA), a carbon dioxide sensor that does not contain Orco; test: Single sensillum recordings (SSRs), maxillary palp capitate peg neuron A; format: in vivo, Anopheles gambiae; settings: cpA is the negative control; for Puffing cpA: Puffing: airstream only for compound delivery; for Huffing cpA: Huffing: airstream in combination with heat (propane or butane torch)
Description: (§1) Single sensillum recordings (SSRs) were performed on single capitate peg (cp) sensillum along the maxillary palps that house three types of olfactory receptor neurons (ORNs). 5- to 7-d-old non-blood fed female Anopheles gambiae that were maintained on 10% sucrose at 12h/12h light/dark cycle were used. Mosquitoes were immobilized by chilling at -20° C. for 1 min before removing wings and legs and then fixing on a glass coverslip covered with double-sided sticky tape. Maxillary palps were extended and held onto the double-sided sticky tape with a piece of hair brush thread. Chloridized silver wires in drawn-out glass capillaries were filled with 0.1% KCl and used as reference and recording electrodes. The reference electrode was placed in the eye, and recording electrode was brought into contact with the sensillum under the microscope (Olympus BX51WI; 800× magnification) by use of a Piezo-Patch micromaniputor (PPM5000; World Precision Instruments). The signals were digitized by the IDAC4 interface box (Syntech, Hilversum, The Netherlands) and offline analysis carried out by using analyzed with AutoSpike v. 3.2 software (Syntech). The extracellular activity of individual capitate peg sensillum ORNs are physiologically distinct and can be characterized into cpA (large), cpB (medium), and cpC (small) based on their spike amplitudes and shape. Responses were quantified by subtracting the number of spikes 1 s before odor stimulation from the number of spikes 1 s after the onset of odor stimulation from individual preparations. […] A 25 μL (VUAA1) or 25 μL aliquot (VUAnt) was then applied to a filter paper strip and placed inside a glass Pasteur pipette. The compound was then delivered by heating the pipette by a propane or butane torch right at the place of treatment for approximately 1 seconds. The compound was then delivered by puffing the odor cartridges with a controlled 0.5-s stimulus of air (5 mL/s) into a humidified airstream (10 mL/s), which was passed over the sensillum. Alternatively, 2-5 mgs of solid compound were measured into a glass Pasteur pipette. The glass pipette was then exposed to heat from a micro propane or butane torch for approximately 5 to 10 seconds. The compound was then delivered by puffing the odor cartridges with a controlled 0.5-s stimulus of air (5 mL/s) into a humidified airstream (10 mL/s), which was passed over the sensillum. Each compound was subjected to in vivo single […] recordings (SSRs) from the maxillary palp of An. gambiae. Puffing refers to use of an airstream only for compound delivery. Huffing refers to the use of an airstream in combination with heat. Specifically, huffing involved direct combustion of the solid compound via propane or butane torch. […] Capitate peg neurons B/C (cpB/C) are neurons known to contain Orco. Carbon dioxide activates only cpA, while 1-octen-3-ol is a known activator of cpB/C.

[2] = test system: Capitate peg neurons B/C (cpB/C), neurons known to contain Orco; test: Single sensillum recordings (SSRs), maxillary palp capitate peg neurons B/C; format: in vivo, Anopheles gambiae; settings: for Puffing cpB/C: Puffing: airstream only for compound delivery; for Huffing cpB/C: Huffing: airstream in combination with heat (propane or butane torch)
Description: as §1

[3] = test system: odorant receptor neuronal cells expressing Orco; test: Currents in odorant receptor neuronal cells expressing Orco; format: cell-based, Drosophila melanogaster; settings: thermally volatized compound; FIG. 3

## C=CC(O)CCCCC (centres unmarked) [Compound 1-octen-3-ol, 1-octen-3-ol, reference compound]
[1]
  Puffing cpA: − (− = <10 spikes/s)
[2]
  Puffing cpB/C: +++ (+++ = >40 spikes/s)

## CCn1c(SCC(=O)N2c3ccccc3Sc3ccccc32)nnc1-c1ccco1 [Compound 4, 2-[[4-ethyl-5-(2-furanyul)-4H-1,2,4-triazol-3-yl]thio]-1-(10OH-phenothiazin-10-yl)-ethanone]
[1]
  Huffing cpA: + (+ = 10-20 spikes/s)
  Puffing cpA: − (− = <10 spikes/s)
[2]
  Huffing cpB/C: + (+ = 10-20 spikes/s)
  Puffing cpB/C: − (− = <10 spikes/s)

## CCn1c(SCC(=O)Nc2ccc(C)cc2)nnc1-c1cccnc1 [Compound 1]
[1]
  Huffing cpA: − (− = <10 spikes/s)
  Puffing cpA: − (− = <10 spikes/s)
[2]
  Huffing cpB/C: +++ (+++ = >40 spikes/s)
  Puffing cpB/C: − (− = <10 spikes/s)

## O=C=O [CO2, carbon dioxide, reference compound]
[1]
  Puffing cpA: +++ (+++ = >40 spikes/s)
[2]
  Puffing cpB/C: − (− = <10 spikes/s)

## CCc1ccc(NC(=O)CSc2nnc(-c3cccnc3)n2CC)cc1 [Compound 2]
[1]
  Huffing cpA: − (− = <10 spikes/s)
  Puffing cpA: − (− = <10 spikes/s)
[2]
  Huffing cpB/C: + (+ = 10-20 spikes/s)
  Puffing cpB/C: − (− = <10 spikes/s)
[3]
  currents induced in odorant receptor neuronal cells expressing Orco: currents induced

Reference: patent US20180192651A1, “THERMAL VOLATILIZATION OF ORCO AGONISTS” (VANDERBILT UNIVERSITY, priority 2015, published 2018)
